The record followed here is patent EP3995502A1, “4-HYDROXYPHENYL PHOSPHONIUM SALTS WITH ANTI-PARASITIC PROPERTIES” (priority 2019, dated 2021).

Data set [1] has as its system THP-1 cells.
The subject of data set [2] is THP-1 cells. The experiment in a line: cells. Conditions: Homo sapiens, THP-1, read-out: EC50 (µM) THP-1 cells.
Data set [3] concerns T. brucei (strain s427 of T. b. brucei). The experiment in a line: In vitro trypanocidal activity, sensitive strain s427. Conditions: Trypanosoma brucei, read-out: EC50 (µM) T. brucei. The format is cell-based.
Data set [4] deals with T. brucei B48. The experiment in a line: microbe, parasite or virus in culture. Conditions: for EC50: Trypanosoma brucei, read-out: EC50 (µM) T. brucei B48. Format: cell-based, T. b. brucei. The arrangement: RF: unit not given here.
For data set [5], the system named is L. donovani intracellular amastigotes. The experiment in a line: In vitro leishmanicidal activity, MTT colorimetric method, intracellular amastigotes. Conditions: read-out: EC50 (µM) L. donovani intracellular amastigotes.
The test system of data set [6] is L. donovani promastigotes. The experiment in a line: In vitro leishmanicidal activity, MTT colorimetric method, promastigotes. Conditions: read-out: EC50 (µM) L. donovani promastigotes.
In data set [7] the test system is L. infantum intracellular amastigotes. The experiment in a line: Leishmanicidal activity on intracellular amastigotes of clinical isolates of L. infantum. The format is cell-based. The source says:
(§1) The data represent the mean ± standard deviation of 3 independent experiments. ^b SI = selectivity index (EC50 THP-1 / EC50 parasite (amastigote form)). ^c not assayed. ^d Sensitivity data obtained in L. infantum LEM3049. ^eAmphotericin B. ^fMiltefosine.
(§2) ^aClinical isolates of L. infantum used: LEM 3049 as a reference line; LEM 3323, resistant to Sb^III; LEM 5159, resistant to miltefosine (MIL) and LEM 2126, resistant to MIL and paromomycin. Amphotericin B (AmB) was used as a reference drug. The data represent the mean ± standard deviation of 3 independent experiments.

Data set [8] relates to L. infantum promastigotes. As to the kind of experiment: Leishmanicidal activity on promastigotes of clinical isolates of L. infantum. The format is cell-based.
Text: as §1, §2

For data set [9] the following is noted: human, liver microsomes.
Data set [10] in a line: in vitro. Conditions: human, liver microsomes.
Data set [11] can be described thus: in vitro. Conditions: human, liver S9 fraction.
[12] abbreviates: strain s427 of T. b. brucei, mean ± standard deviation of 3 independent experiments.
[13] abbreviates: selectivity index (EC50 THP-1 / EC50 parasite (amastigote form)), L. donovani.
The mark [14] stands for this setting: strain HU3, mean ± standard deviation of 3 independent experiments.

Read-outs that look alike come from different tables or passages of the source.

With `Cc1cc(O)ccc1C(=O)CCCCCCCCCCCCCCC[P+](c1ccccc1)(c1ccccc1)c1ccccc1.[Br-]` [compound 2, (16-(4-hydroxy-2-methylphenyl)-16-oxohexadecyl)triphenylphosphonium bromide], the SI in data set [1] is recorded as 24.5. Moreover, the EC50 in [2] was determined as 2.45 ± 0.41 µM; in data set [3] (setting [12]) it was 0.043 µM; in data set [4], 0.044 µM; in data set [5] (Leishmania donovani), 0.1 ± 0.01 µM; in data set [6] (Leishmania donovani) it was 0.09 ± 0.01 µM. The compound further displayed an RF in data set [4] of 1.01.
Consider `C[C@@H]1[C@H](O)[C@@H](C)/C=C/C=C/C=C/C=C/C=C/C=C/C=C/[C@H](O[C@@H]2O[C@H](C)[C@@H](O)[C@H](N)[C@@H]2O)C[C@@H]2O[C@](O)(C[C@@H](O)C[C@@H](O)[C@H](O)CC[C@@H](O)C[C@@H](O)CC(=O)O[C@H]1C)C[C@H](O)[C@H]2C(=O)O` [AmB, Amphotericin B], for which the EC50 in data set [7] (L. infantum LEM3049, reference line, read-out: EC50 (µM) Intracellular amastigotes) is 0.17 ± 0.02 µM; in data set [7] (L. infantum LEM3323, resistant to SbIII, read-out: EC50 (µM) Intracellular amastigotes), 0.18 ± 0.02 µM; in [7] (L. infantum LEM5159, resistant to miltefosine, read-out: EC50 (µM) Intracellular amastigotes), 0.16 ± 0.03 µM; in [7] (L. infantum LLM2126, resistant to MIL and paromomycin, read-out: EC50 (µM) Intracellular amastigotes), 0.16 ± 0.01 µM; in data set [1] (read-out: EC50 (µM) THP-1 cells, human THP-1 cells, cytotoxicity) it was 27.9 µM; in data set [8] (L. infantum LEM3049, reference line, read-out: EC50 (µM) Promastigotes) it was 0.06 ± 0.02 µM. Besides, the EC50 amounted to 0.07 ± 0.03 µM in data set [8] (L. infantum LEM3323, resistant to SbIII, read-out: EC50 (µM) Promastigotes); 0.05 ± 0.01 µM in data set [8] (L. infantum LEM5159, resistant to miltefosine, read-out: EC50 (µM) Promastigotes); 0.1 ± 0.02 µM in data set [8] (L. infantum LLM2126, resistant to MIL and paromomycin, read-out: EC50 (µM) Promastigotes); 0.24 µM in data set [5] (setting [14]); 0.13 ± 0.02 µM in data set [6] (setting [14]). The same compound had an SI in data set [1] (setting [13]) of 116.0.
For the compound `N=C(N)c1ccc(/N=N/Nc2ccc(C(=N)N)cc2)cc1` [Dimin, Diminazene], the results for the EC50 in data set [3] and in data set [4] were 0.101 µM and 1.33 ± 0.14 µM, respectively.
In data set [1], `Cc1cc(O)ccc1C(=O)CCCCCCCCCCCCCCC[P+](c1ccccc1)(c1ccccc1)c1ccccn1.[Br-]` [compound 3, (16-(4-hydroxy-2-methylphenyl)-16-oxohexadecyl)diphenyl(pyridin-2-yl)phosphonium bromide] showed an SI of 21.1. Besides, the EC50 in [2] was 2.11 ± 0.12 µM; in data set [3] (setting [12]), 0.107 µM; in data set [4] it was 0.096 µM; in [5] (Leishmania donovani), 0.1 ± 0.02 µM; in data set [6] (Leishmania donovani) it was 0.28 ± 0.05 µM. Moreover, in data set [4], the RF is on record as 0.90.
For the compound `CCCCCCCCCCCCCCCCOP(=O)([O-])OCC[N+](C)(C)C` [MIL, Miltefosine], the SI in [1] (setting [13]) was 28.8. The EC50 was 26.2 ± 2.58 µM in [2], 0.91 ± 0.05 µM in data set [5] (Leishmania donovani) and 6.51 ± 0.35 µM in data set [6] (Leishmania donovani).
For the compound `N=C(N)c1ccc(OCCCCCOc2ccc(C(=N)N)cc2)cc1` [Pent, Pentamidine], the EC50 in data set [3] (setting [12]) was 0.0033 ± 0.0006 µM; in [4], 0.55 ± 0.03 µM.
Take `O=C(CCCCCCCCCCCCCCC[P+](c1cccc2ccccc12)(c1cccc2ccccc12)c1cccc2ccccc12)c1ccc(O)cc1O.[Br-]` [compound 4, (16-(2,4-dihydroxyphenyl)-16-oxohexadecyl)tri(naphthalen-1-yl)phosphonium bromide]: the EC50 in data set [7] (Leishmania infantum, footnote d: sensitivity data obtained in L. infantum LEM3049, read-out: EC50 (µM) L. donovani intracellular amastigotes) stood at 1.25 ± 0.22 µM; in [2], 12.8 ± 2.3 µM; in data set [8] (Leishmania infantum, footnote d: sensitivity data obtained in L. infantum LEM3049, read-out: EC50 (µM) L. donovani promastigotes), 3.54 ± 0.36 µM. In [1] (selectivity index (EC50 THP-1 / EC50 parasite (amastigote form)), parasite data from L. infantum LEM3049), this compound gave an SI of 10.3.
As to `O=C(O)Cc1ccccc1Nc1c(Cl)cccc1Cl` [diclofenac], the intrinsic clearance entry in data set [9] was “high”. For the same compound, the half-life in [10] and in [11] was less than 30 min throughout.
